{"source": "paper PMC6387623", "about": "(Proteins, 2018)", "target": "RGS4 (single-cysteine RGS4 C95) (Rattus norvegicus, UniProt P49799, C71A/C132A/C148A/C183A/C197A/C204A)", "sequence (P49799 52-205 C71A/C132A/C148A/C183A/C197A/C204A)": "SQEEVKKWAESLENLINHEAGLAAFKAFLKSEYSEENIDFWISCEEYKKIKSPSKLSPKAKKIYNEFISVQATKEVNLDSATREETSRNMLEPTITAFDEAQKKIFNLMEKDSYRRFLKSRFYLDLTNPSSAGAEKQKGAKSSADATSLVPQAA", "assay": "Flow cytometry protein interaction assay", "assay_type": "binding"}
{"compound": "Cc1ccc(-n2sc(=O)n(Cc3ccc(F)cc3)c2=O)cc1", "note": "[compound 1, CCG-50014]", "values": [{"measurement": "IC50", "result": "~4.5", "unit": "µM"}]}
